Measured values as given in patent US11331312B2, “Treatment of H-Ras-driven tumors” (MEMORIAL SLOAN-KETTERING CANCER CENTER, priority 2014, dated 2022).
“Also recorded” adds a separate entry of the source.

How the values were obtained:
[1] = Body weight and tolerability of treated mice; format: in vivo, mouse; conditions: 80 mg/kg BID
Experimental: (§1) The activity of these compounds in vivo was explored. Mice were treated for 2 weeks with tipifarnib or lonafarnib at 80 mg/kg twice daily (drug mixed in 20% beta-cyclodextran and given by gavage). […] Treatment with FTIs was well tolerated in the mice with no significant differences in animal weight between vehicle and drug at 14 days (FIG. 6). Next mice were treated with Tipifarnib or vehicle for an extended time course. Of note, for this experiment tumors in each group were size-matched at the time of treatment initiation (FIG. 8).

[2] = test system: MAPK pathway signaling effectors; assay: Western blots of MAPK pathway signaling effectors in HP-ATC1 mouse cell line; format: cell-based; conditions: HP-ATC1 cells, 1.5% serum, increasing concentrations of drug, Western blot
Experimental: (§2) FIGS. 2A and B show the results of exposure of mouse cell lines from tumor bearing Tpo-Cre/FR-HrasG12V/p53flox/flox mice to farnesyltransferase inhibitors. Mouse cell lines were generated from tumor bearing Tpo-Cre/FR-HrasG12V/p53flox/flox mice by collagenase/dispase digestion and maintained in Coon's F-12 media with serum. After 15 passages, cells were plated in 1.5% serum and exposed to increasing concentrations of indicated drug. (A) Western blots were performed for indicated proteins (antibodies from Cell Signaling with exception of Hras which was from Santa Cruz).
(§3) Development and characterization of mouse cell lines from TPO-Cre, Hras-G12V+/+, p53f/f mice: In order to study this model in vitro, we developed a mouse cell line (HP-ATC1) from an animal with ATC. The cell line was confirmed to harbor the HrasG12V mutation, and maintained primary tumor characteristics, including its spindle shape and the relative expression of E-cadherin and vimentin through serial passaging (x6-10).
(§4) The FTIs Tipifarnib and Lonafarnib block MAPK signaling and growth of mouse Tpo-Cre, HRas-G12V+/+, p53f/f cell line: There are currently no therapies that directly target oncogenic forms of oncogenic Ras.
(§5) Mouse cell lines were generated from tumor bearing Tpo-Cre/FR-HrasG12V/p53flox/flox mice by collagenase/dispase digestion and maintained in Coon's F-12 media with serum. […]

HP-ATC1 cells = assay: 6 day proliferation assay in HP-ATC1 mouse cell line; format: cell-based; conditions: 1.5% serum, 6 day assay, increasing concentrations of drug
Experimental: as §2, §3, §4, §5

[3] = test system: Hras-G12V+/+/p53-null thyroid cancers; assay: 2-week FTI treatment of mice with thyroid cancers, tumor volume by 3D ultrasound; format: in vivo, mouse; conditions: 80 mg/kg twice daily by gavage, 2 weeks (14 days)
Experimental: FIG. 3 is a schematic showing the design of the in vivo study of tipifarnib in Tpo-Cre/FR-Hras^G12V/p53^flox/flox mice. Mice were treated for 14 days with tipifarnib 80 mg/kg BID by gavage. Tipifarnib was prepared in 20% beta-cyclodextran. 3D ultrasound was performed before and after treatment to assess percent change in tumor volume.
Tumors in each treatment group were sized matched at the beginning of therapy.
FIG. 5 is a waterfall plot of the same mice but with an additional cohort of mice treated with lonafarnib added. Of note the lonafarnib treated mice were not size matched to the vehicle group.
as §1

Compound	animal weight, drug vs vehicle ([1]; 14 days)	toxicity / tolerability ([1]; two weeks of treatment)	inhibition of MAPK effector phosphorylation [2]	inhibition of proliferation (HP-ATC1 cells)	change in thyroid tumor volume (ultrasound) compared to vehicle-treated mice [3]
Cn1cncc1[C@@](N)(c1ccc(Cl)cc1)c1ccc2c(c1)c(-c1cccc(Cl)c1)cc(=O)n2C [tipifarnib]	No differences	minimal toxicity	–	–	–
NC(=O)N1CCC(CC(=O)N2CCC([C@H]3c4ncc(Br)cc4CCc4cc(Cl)cc(Br)c43)CC2)CC1 [lonafarnib]	–	–	dose-dependent inhibition	dose-dependent inhibition of proliferation	Consistent inhibition of growth; also recorded: Significant reduction in thyroid tumor volume
